Assay results as given in patent publication US20230150944A1, “PESTICIDALLY ACTIVE HETEROCYCLIC DERIVATIVES WITH SULFOXIMINE CONTAINING SUBSTITUENTS” (SYNGENTA CROP PROTECTION AG, priority 2018, published 2023).

Legend:
Format in all cases: in vivo
[1] = tested on: Tetranychus urticae (Two-Spotted Spider Mite); assay: Example B10: Activity on Tetranychus urticae, bean leaf disc spray; settings: foliar, 192 h
Experimental: Example B10: Activity on Tetranychus urticae (Two-Spotted Spider Mite)
Bean leaf discs on agar in 24-well microtiter plates were sprayed with aqueous test solutions prepared from 10′000 ppm DMSO stock solutions. After drying the leaf discs were infested with a mite population of mixed ages. The samples were assessed for mortality on mixed population (mobile stages) 8 days after infestation.

[2] = tested on: Spodoptera littoralis (Egyptian Cotton Leaf Worm); assay: Example B7: Activity on Spodoptera littoralis, cotton leaf disc spray; settings: foliar, 72 h, application rate of 200 ppm, L1 larvae on cotton leaf discs, 3 days after infestation, read-out: control (mortality, anti-feeding effect or growth inhibition)
Experimental: Example B7: Activity on Spodoptera littoralis (Egyptian Cotton Leaf Worm)
Cotton leaf discs were placed onto agar in 24-well microtiter plates and sprayed with aqueous test solutions prepared from 10′000 ppm DMSO stock solutions. After drying the leaf discs were infested with five L1 larvae. The samples were assessed for mortality, anti-feeding effect, and growth inhibition in comparison to untreated samples 3 days after infestation. Control of Spodoptera littoralis by a test sample is given when at least one of the categories mortality, anti-feedant effect, and growth inhibition is higher than the untreated sample.

[3] = tested on: Diabrotica balteata (Corn Root Worm); assay: Example B2: Activity on Diabrotica balteata, maize sprout spray; settings: 96 h, application rate of 200 ppm, L2 larvae on maize sprouts, 4 days after infestation, read-out: effect in at least one of the two categories (mortality or growth inhibition)
Experimental: Example B2: Activity on Diabrotica balteata (Corn Root Worm)
Maize sprouts placed onto an agar layer in 24-well microtiter plates were treated with aqueous test solutions prepared from 10′000 ppm DMSO stock solutions by spraying. After drying, the plates were infested with L2 larvae (6 to 10 per well). The samples were assessed for mortality and growth inhibition in comparison to untreated samples 4 days after infestation.

[4] = tested on: Bemisia tabaci (Cotton White Fly); assay: Example B1: Activity on Bemisia tabaci, cotton leaf disc spray; settings: foliar, 144 h, application rate of 200 ppm, adult white flies on cotton leaf discs, 6 days after incubation
Experimental: Example B1: Activity on Bemisia tabaci (Cotton White Fly)
Cotton leaf discs were placed on agar in 24-well microtiter plates and sprayed with aqueous test solutions prepared from 10′000 ppm DMSO stock solutions. After drying the leaf discs were infested with adult white flies. The samples were checked for mortality 6 days after incubation.

[5] = tested on: Euschistus heros (Neotropical Brown Stink Bug); assay: Example B3: Activity on Euschistus heros, soybean leaf spray; settings: 120 h, application rate of 200 ppm, N2 nymphs on soybean leaves, 5 days after infestation, read-out: effect in at least one of the two categories (mortality or growth inhibition)
Experimental: Example B3: Activity on Euschistus heros (Neotropical Brown Stink Bug)
Soybean leaves on agar in 24-well microtiter plates were sprayed with aqueous test solutions prepared from 10′000 ppm DMSO stock solutions. After drying the leaves were infested with N2 nymphs. The samples were assessed for mortality and growth inhibition in comparison to untreated samples 5 days after infestation.

[6] = tested on: Myzus persicae (Green Peach Aphid); assay: Example B4: Activity on Myzus persicae, sunflower leaf disc spray; settings: foliar, 144 h, application rate of 200 ppm, mixed-age aphids on sprayed sunflower leaf discs, 6 days after infestation
Experimental: Example B4: Activity on Myzus persicae (Green Peach Aphid)
Sunflower leaf discs were placed onto agar in a 24-well microtiter plate and sprayed with aqueous test solutions prepared from 10′000 ppm DMSO stock solutions. After drying, the leaf discs were infested with an aphid population of mixed ages. The samples were assessed for mortality 6 days after infestation.

[7] = tested on: Plutella xylostella (Diamond Back Moth); assay: Example B6: Activity on Plutella xylostella, artificial diet, L2 larvae; settings: 120 h, application rate of 200 ppm, 5 days after infestation, read-out: effect in at least one of the two categories (mortality or growth inhibition)
Experimental: Example B6: Activity on Plutella xylostella (Diamond Back Moth)
(§1) 24-well microtiter plates with artificial diet were treated with aqueous test solutions prepared from 10′000 ppm DMSO stock solutions by pipetting. After drying, the plates were infested with L2 larvae (10 to 15 per well). The samples were assessed for mortality and growth inhibition in comparison to untreated samples 5 days after infestation.

[8] = tested on: Myzus persicae (Green Peach Aphid); assay: Example B5: Activity on Myzus persicae, pea seedling roots in test solution; settings: 144 h, test rate of 24 ppm, roots of infested pea seedlings placed into test solution, 6 days
Experimental: Example B5: Activity on Myzus persicae (Green Peach Aphid)
Roots of pea seedlings infested with an aphid population of mixed ages were placed directly into aqueous test solutions prepared from 10′000 DMSO stock solutions. The samples were assessed for mortality 6 days after placing seedlings into test solutions.

[9] = tested on: Plutella xylostella (Diamond Back Moth); assay: Example B11: Activity on Plutella xylostella, artificial diet, eggs; settings: 192 h, application rate of 200 ppm, 8 days after infestation, read-out: effect in at least one of the two categories (mortality or growth inhibition)
Experimental: Example B11: Activity on Plutella xylostella (Diamond Back Moth)
as §1, with “drying, Plutella eggs were pipetted through a plastic stencil onto a gel blotting paper and” for “drying,”, “plate was closed” for “plates were infested”, “it.” for “L2 larvae (10 to 15 per well).”, “8” for “5”

CCS(=N)(=O)c1cc(C2CC2)cnc1-c1nc2cc(S(=O)(=O)C(F)(F)F)ncc2n1C (stereo not shown) [Example P3, [5-cyclopropyl-2-[3-methyl-6-(trifluoromethylsulfonyl)imidazo[4,5-c]pyridin-2-yl]-3-pyridyl]-ethyl-imino-oxo-λ^6-sulfane]
≥ 80%: mortality at 200 ppm [1] | percent control (mortality, anti-feedant effect or growth inhibition) at 200 ppm [2] | percent effect (mortality or growth inhibition) at 200 ppm [3] | mortality at 200 ppm [4] | percent effect (mortality or growth inhibition) at 200 ppm [5] | mortality at 200 ppm [6] | percent effect (mortality or growth inhibition) at 200 ppm [7] | mortality at 24 ppm [8]

CCS(=N)(=O)c1cc(C2CC2)cnc1-c1cn2ncc(C(F)(F)F)cc2n1 (stereo not shown) [Example P16, [5-cyclopropyl-2-[7-(trifluoromethyl)imidazo[1,2-b]pyridazin-2-yl]-3-pyridyl]-ethyl-imino-oxo-λ^6-sulfane]
≥ 80%: percent control (mortality, anti-feedant effect or growth inhibition) at 200 ppm [2] | percent effect (mortality or growth inhibition) at 200 ppm [3] | percent effect (mortality or growth inhibition) at 200 ppm [9] | mortality at 200 ppm [6] | mortality at 24 ppm [8]
